One assay addresses Bcl-xL (Homo sapiens, UniProt Q07817). The assay can be described thus: Time Resolved-Fluorescence Resonance Energy Transfer (TR-FRET) binding assay, competition with probe F-Bak. The essentials: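 TR-FRET binding assay run at room temperature for 2 h after mixing compound with Bcl-xL protein, F-Bak probe and Tb-labelled antibody. Test compounds diluted from a 2× 50 μM stock. Ki values derived via Wang's equation from 520/495 nm emission under 340 nm excitation, in the absence of serum or with 1% HS.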
On the technique in general: Time-resolved FRET reads energy transfer from a long-lived donor to a nearby acceptor.

Assay [1] concerns Molt-4 human acute lymphoblastic leukemia cells. Nature of the assay: Molt-4 cell viability assay (CellTiter-Glo, 48 hours, 10% HS). The assay is classed as cell-based. The note with it: non-permeabilized cells. The method, boiled down:
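Cells were seeded at 12,500 per well in medium with 10% human serum and exposed to a 3-fold compound dilution series from 10 μM to 0.0005 μM. After 48 h, viable cells were quantified by CellTiter-Glo luminescence. Each concentration was run in duplicate on at least 3 occasions.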

Assay [2] concerns permeabilized Bcl-xL dependent Molt-4 cells. Nature of the assay: Cytochrome C release in selectively (digitonin) permeabilized Molt-4 cells. The assay is classed as cell-based, human. Particulars: 4 h treatment, read-out: Molt-4 Permeabilized Cyt C Release. From the text: The permeabilization of the mitochondrial outer membrane to release proteins from the intermembrane space into the cytosol is a pivotal event in the process of apoptosis. Specifically, the release of cytochrome C triggers the formation of the apoptosome which, in turn, results in caspase activation and other events that will commit the cell to undergo programmed cell death (Goldstein el al., 2005, Cell Death and Differentiation 12:453). The process of mitochondrial outer membrane permeabilization (MOMP) is controlled by the Bcl-2 family members. It is promoted by the multidomain pro-apoptotic proteins Bax and Bak which, upon activation, oligomerize on the outer mitochondrial membrane and form pores to ultimately release cytochrome C. This action is antagonized by the antiapoptotic members, including Bcl-2 and Bcl-xL. Compounds that are capable of inhibiting Bcl-2 or Bcl-xL, for example, in cells that depend upon these proteins for survival, can cause activation of Bax and or Bak, MOMP, release of cytochrome C and the mentioned downstream steps in the apoptotic process. This process of cytochrome C release can be measured in cells via Western blot of both mitochrondrial and cytosolic fractions, and can be used a proxy measurement of apoptosis in cells.
As a means of detecting the ability of a Bcl-xL inhibitor with low cell-permeability to cause release of cytochrome C, the cells can be treated with an agent that causes selective pore formation in the plasma membrane, but not the mitochondrial membrane. Specifically, the cholesterol/phospholipid ratio is much higher in the plasma membrane than the mitochondrial membrane. […] This agent forms insoluble complexes with cholesterol leading to the segregation of cholesterol from its normal phospholipid binding sites. This action, in turn, leads to the formation of holes about 40-50 Å wide in the lipid bilayer. Once the plasma membrane is permeabilized, cytosolic components able to pass over digitonin-formed holes can be washed out, including the cytochrome C that was released from mitochondria to cytosol in the apoptotic cells ((Campos, 2006, Cytometry A 69(6):515-523)).
To determine if Bcl-xL inhibitors were inducing cell death through apoptosis, cytochrome C release was measured in Bcl-xL dependent Molt-4 cells following treatment Specifically, 1×10^6 cells were treated for 4 h (37° C., 5% CO2) with the test compounds in half-log dilutions starting at 3.0 μM and ending at 0.01 μM. Cells were then processed as described in Chen et al., 2011, Mol. Cancer Ther. 10:2340-2350 (the Bcl-2/Bcl-X(L)/Bcl-w inhibitor, navitoclax, enhances the activity of chemotherapeutic agents in vitro and in vivo.).

[3] abbreviates: in the presence of 1% HS, read-out: Bcl-xL Binding Ki (nM, 1% HS).
Setting [4] is: without HS, read-out: Bcl-xL Binding Ki.

Read-outs that look alike come from different tables or passages of the source. Where only a bound is given, the exact number is not on record here.

Consider eleven compounds from US20240058450A1, “BCL-XL Inhibitory Compounds Having Low Cell Permeability and Antibody Drug Conjugates Including the Same” (AbbVie Inc., priority 2014, published 2024).

Bcl-xL, sequence (Q07817 whole entry): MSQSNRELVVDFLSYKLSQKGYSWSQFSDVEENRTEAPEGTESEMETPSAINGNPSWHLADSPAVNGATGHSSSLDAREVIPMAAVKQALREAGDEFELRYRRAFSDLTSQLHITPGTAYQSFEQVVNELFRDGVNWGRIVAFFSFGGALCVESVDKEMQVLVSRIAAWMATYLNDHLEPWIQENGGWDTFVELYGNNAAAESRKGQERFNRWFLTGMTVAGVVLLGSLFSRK

As a reminder, the Ki is a measure of affinity in units of concentration, obtained from inhibition or displacement. Turning to `Cc1c(-c2ccc(N3CCc4cccc(C(=O)Nc5nc6ccccc6s5)c4C3)nc2C(=O)O)cnn1CC12CC3(C)CC(C)(C1)CC(OCCN(CCOCCOCCN)Cc1ccc(CC4O[C@H](C(=O)O)[C@@H](O)[C@H](O)[C@H]4O)cc1)(C3)C2` (stereo partly drawn) [Example 1.18, 6-{4-[({2-[2-(2-aminoethoxy)ethoxy]ethyl}[2-({3-[(4-{6-[8-(1,3-benzothiazol-2-ylcarbamoyl)-3,4-dihydroisoquinolin-2 (1H)-yl]-2-carboxypyridin-3-yl}-5-methyl-1H-pyrazol-1-yl)methyl]-5,7-dimethyltricyclo[3.3.1.1^3,7]dec-1-yl}oxy)ethyl]amino)methyl]benzyl}-2,6-anhydro-L-gulonic acid], the figures for the Ki on Bcl-xL (setting [3]) and at Bcl-xL (setting [4]) were 1.38 nM and under 0.001 nM, respectively. The EC50 was 3330 nM in assay [1]; under 0.5 nM in assay [2]; 1 to 5 nM in assay [2] (Homo sapiens, MOLT-4, 4 h).

Consider `Cc1c(-c2ccc(-c3ccc4c(c3)N(C(=O)Nc3nc5ccccc5s3)CCC4)nc2C(=O)O)cnn1CC12CC3(C)CC(C)(C1)CC(OCCNCCP(=O)(O)O)(C3)C2` [Example 1.20, 6-[1-(1,3-benzothiazol-2-ylcarbamoyl)-1,2,3,4-tetrahydroquinolin-7-yl]-3-{1-[(3,5-dimethyl-7-(2-[(2-phosphonoethyl)amino]ethoxy}tricyclo[3.3.1.1^3,7]dec-1-yl)methyl]-5-methyl-1H-pyrazol-4-yl}pyridine-2-carboxylic acid], for which the Ki on Bcl-xL (setting [3]) is 0.47 nM; at Bcl-xL (setting [4]), under 0.001 nM. In addition, the EC50 in assay [1] (Homo sapiens, MOLT-4, 48 h) was 774 nM; in assay [2] (Homo sapiens, MOLT-4, 4 h) it was under 0.5 nM.

Take `Cc1c(-c2ccc(N3CCc4cccc(C(=O)Nc5nc6cccnc6s5)c4C3)nc2C(=O)O)cnn1CC12CC3(C)CC(C)(C1)CC(OCCNCCS(=O)(=O)O)(C3)C2` [Example 1.22, 3-{1-[(3,5-dimethyl-7-{2-[(2-sulfoethyl)amino]ethoxy}tricyclo[3.3.1.1^3,7]dec-1-yl)methyl]-5-methyl-1H-pyrazol-4-yl}-6-[8-([1,3]thiazolo[5,4-b]pyridin-2-ylcarbamoyl)-3,4-dihydroisoquinolin-2 (1H)-yl]pyridine-2-carboxylic acid]: the Ki at Bcl-xL (setting [3]) is 7.11 nM; on Bcl-xL (setting [4]), 0.006 nM. Moreover, the EC50 in assay [1] (Homo sapiens, MOLT-4, 48 h) was over 10000 nM; in assay [2] (Homo sapiens, MOLT-4, 4 h) it was under 0.5 nM.

On to `Cc1c(-c2ccc(-c3ccc4c(c3)N(C(=O)Nc3nc5ccccc5s3)CCC4)nc2C(=O)O)cnn1CC12CC3(C)CC(C)(C1)CC(OCCNCCS(=O)(=O)O)(C3)C2` [Example 1.24, 6-[1-(1,3-benzothiazol-2-ylcarbamoyl)-1,2,3,4-tetrahydroquinolin-7-yl]-3-{1-[(3,5-dimethyl-7-{2-[(2-sulfoethyl)amino]ethoxy}tricyclo[3.3.1.1^3,7]dec-1-yl)methyl]-5-methyl-1H-pyrazol-4-yl}pyridine-2-carboxylic acid], for which the Ki on Bcl-xL (setting [3]) was 0.074 nM; at Bcl-xL (setting [4]), under 0.001 nM. Also, the EC50 was 390 nM in assay [1] (Homo sapiens, MOLT-4, 48 h) and under 0.5 nM in assay [2] (Homo sapiens, MOLT-4, 4 h).

As to `Cc1c(-c2ccc(N3CCc4cccc(C(=O)Nc5nc6ccccc6s5)c4C3)nc2C(=O)O)cnn1CC12CC3(C)CC(C)(C1)CC(OCCNCCC(=O)O)(C3)C2` [Example 1.25, 6-[8-(1,3-benzothiazol-2-ylcarbamoyl)-3,4-dihydroisoquinolin-2 (1H)-yl]-3-{1-[(3-{2-[(2-carboxyethyl)amino]ethoxy}-5,7-dimethyltricyclo[3.3.1.1^3,7]dec-1-yl)methyl]-5-methyl-1H-pyrazol-4-yl)pyridine-2-carboxylic acid], the results for the Ki on Bcl-xL (setting [3]) and at Bcl-xL (setting [4]) were 0.083 nM and under 0.001 nM, respectively. In addition, the EC50 in assay [1] (Homo sapiens, MOLT-4, 48 h) was 430 nM; in assay [2] (Homo sapiens, MOLT-4, 4 h), under 0.5 nM.

For the compound `Cc1c(-c2ccc(N3CCc4cccc(C(=O)Nc5nc6ccccc6s5)c4C3)nc2C(=O)O)cnn1CC12CC3(C)CC(C)(C1)CC(OCCN(CCCP(=O)(O)O)C1CCNCC1)(C3)C2` [Example 1.26, 6-[8-(1,3-benzothiazol-2-ylcarbamoyl)-3,4-dihydroisoquinolin-2 (1H)-yl]-3-{1-[(3,5-dimethyl-7-{2-[(3-phosphonopropyl)(piperidin-4-yl)amino]ethoxy}tricyclo[3.3.1.1^3,7]dec-1-yl)methyl]-5-methyl-1H-pyrazol-4-yl}pyridine-2-carboxylic acid], the Ki on Bcl-xL (setting [3]) was 0.11 nM; on Bcl-xL (setting [4]), under 0.001 nM. The EC50 in assay [1] (Homo sapiens, MOLT-4, 48 h) was 2330 nM; in assay [2] (Homo sapiens, MOLT-4, 4 h), under 0.5 nM.

As for `Cc1c(-c2ccc(N3CCc4cccc(C(=O)Nc5nc6ccccc6s5)c4C3)nc2C(=O)O)cnn1CC12CC3(C)CC(C)(C1)CC(OCCN(C)C(=O)[C@@H](N)CCCC[N+](C)(C)C)(C3)C2` [Example 1.29, N-[(5S)-5-amino-6-{[2-({3-[(4-{6-[8-(1,3-benzothiazol-2-ylcarbamoyl)-3,4-dihydroisoquinolin-2 (1H)-yl]-2-carboxypyridin-3-yl}-5-methyl-1H-pyrazol-1-yl)methyl]-5,7-dimethyltricyclo[3.3.1.1^3,7]dec-1-yl}oxy)ethyl](methyl)amino}-6-oxohexyl]-N,N-dimethylmethanaminium], the results for the Ki at Bcl-xL (setting [3]) and at Bcl-xL (setting [4]) were 0.033 nM and 0.009 nM, respectively. Further, the EC50 in assay [1] is 935 nM; in assay [2], under 0.5 nM.

As to `Cc1c(-c2ccc(N3CCc4cccc(C(=O)Nc5nc6ccccc6s5)c4C3)nc2C(=O)O)cnn1CC12CC3(C)CC(C)(C1)CC(OCCNC(=O)[C@H](CC(=O)O)NCCC(=O)O)(C3)C2` [Example 1.32, 6-[8-(1,3-benzothiazol-2-ylcarbamoyl)-3,4-dihydroisoquinolin-2 (1H)-yl]-3-(1-{[3-(2-{[N-(2-carboxyethyl)-L-alpha-aspartyl]amino}ethoxy)-5,7-dimethyltricyclo[3.3.1.1^3,7]dec-1-yl]methyl}-5-methyl-1H-pyrazol-4-yl}pyridine-2-carboxylic acid], the Ki at Bcl-xL (setting [3]) was 0.28 nM; on Bcl-xL (setting [4]), under 0.001 nM. The EC50 was 708 nM in assay [1] (Homo sapiens, MOLT-4, 48 h) and under 0.5 nM in assay [2] (Homo sapiens, MOLT-4, 4 h).

Regarding `Cc1c(-c2ccc(N3CCc4cccc(C(=O)Nc5nc6ccccc6s5)c4C3)nc2C(=O)O)cnn1CC12CC3(C)CC(C)(C1)CC(OCCN(CCNCCC(=O)O)CCS(=O)(=O)O)(C3)C2` [Example 1.38, 6-[8-(1,3-benzothiazol-2-ylcarbamoyl)-3,4-dihydroisoquinolin-2 (1H)-yl]-3-{1-[(3-{2-[{2-[(2-carboxyethyl)amino]ethyl}(2-sulfoethyl)amino]ethoxy}-5,7-dimethyltricyclo[3.3.1.1^3,7]dec-1-yl)methyl]-5-methyl-1H-pyrazol-4-yl}pyridine-2-carboxylic acid], the inhibitory constant (Ki) is 0.203 nM at Bcl-xL (setting [3]) and under 0.001 nM on Bcl-xL (setting [4]). Further, the EC50 is 245 nM in assay [1] (Homo sapiens, MOLT-4, 48 h) and under 0.5 nM in assay [2] (Homo sapiens, MOLT-4, 4 h).

As to `Cc1c(-c2ccc(N3CCc4cccc(C(=O)Nc5nc6ncccc6s5)c4C3)nc2C(=O)O)cnn1CC12CC3(C)CC(C)(C1)CC(OCCNCCCP(=O)(O)O)(C3)C2` [Example 1.39, 3-{1-[(3,5-dimethyl-7-{2-[(3-phosphonopropyl)amino]ethoxy}tricyclo[3.3.1.1^3,7]dec-1-yl)methyl]-5-methyl-1H-pyrazol-4-yl}-6-[8-([1,3]thiazolo[4,5-b]pyridin-2-ylcarbamoyl)-3,4-dihydroisoquinolin-2 (1H)-yl]pyridine-2-carboxylic acid], the Ki at Bcl-xL (setting [3]) was determined as 0.174 nM; on Bcl-xL (setting [4]), 0.018 nM. In addition, the EC50 in assay [1] (Homo sapiens, MOLT-4, 48 h) was 1590 nM; in assay [2] (Homo sapiens, MOLT-4, 4 h) it was under 0.5 nM.

With `Cc1c(-c2ccc(N3CCc4cccc(C(=O)Nc5nc6ccccc6s5)c4C3)nc2C(=O)O)cnn1CC12CC3(C)CC(C)(C1)CC(OCCN(CCS(=O)(=O)O)C(=O)[C@@H](N)CC(=O)O)(C3)C2` [Example 1.44, 3-{1-[(3-{2-[L-alpha-aspartyl(2-sulfoethyl)amino]ethoxy}-5,7-dimethyltricyclo[3.3.1.1^3,7]dec-1-yl)methyl]-5-methyl-1H-pyrazol-4-yl}-6-[8-(1,3-benzothiazol-2-ylcarbamoyl)-3,4-dihydroisoquinolin-2 (1H)-yl]pyridine-2-carboxylic acid], the values for the Ki on Bcl-xL (setting [3]) and on Bcl-xL (setting [4]) were 0.282 nM and under 0.001 nM, respectively. Also, the EC50 is 1260 nM in assay [1] (Homo sapiens, MOLT-4, 48 h) and under 0.5 nM in assay [2] (Homo sapiens, MOLT-4, 4 h).
